Patent US20060159829A1, “Consumer product for enhancing mental focus” (Conopco Inc, d/b/a UNILEVER, priority 2004, published 2006)

Tests used:
[1] = system: spoilage yeasts or moulds; experiment: Antimicrobial effect of cinnamic acid at low and neutral pH; format: cell-based; conditions: 100 ppm
[2] = cited from earlier work

Structure (SMILES) | effect on growth of spoilage yeasts or moulds ([1]; neutral pH) | effect on growth of spoilage yeasts or moulds ([1]; pH 3.0) | pKa [2]
O=C(O)C=Cc1ccccc1 [cinnamic acid] | entirely without effect | completely extinguish growth | –
O=S(O)O [sulphite] | – | – | 1.88
